Experimental data published in patent publication US20250186541A1, “DLL3 TARGETING PEPTIDES AND CONSTRUCTS THEREOF” (MARIANA ONCOLOGY INC., priority 2023, published 2025).
Numbered stars: 1 amine (or outer) side, 2 acyl side, 3 side chain; on linkers, the order of the positions; unused ones are H or OH. Bridge positions count the residues as written; N and C are the ends. Square brackets hold non-standard residues; d marks the D form. Peptide text beside a SMILES is read from it. * marks the point of attachment. Ala(piperidin-4-yl) = O=C([C@H](CC1CCN([*:3])CC1)N[*:1])[*:2]; DOTA = O=C(O)CN1CCN(CC(=O)O)CCN(CC(=O)*)CCN(CC(=O)O)CC1; Phe(4-CH2NH2) = NCc1ccc(C[C@H](N)C(=O)O)cc1; 1Nal = N[C@@H](Cc1cccc2ccccc12)C(=O)O; 2Nal = N[C@@H](Cc1ccc2ccccc2c1)C(=O)O; Phe(2-Me) = Cc1ccccc1C[C@H](N)C(=O)O; tBuAla = CC(C)(C)C[C@H](N)C(=O)O; αMeD = C[C@](N)(CC(=O)O)C(=O)O; AllylGly = C=CC[C@H](N)C(=O)O; PAF(DOTA) = not defined here; αMeP = C[C@@]1(C(=O)O)CCCN1; NMeS = CN[C@@H](CO)C(=O)O; Ahx = NCCCCCC(=O)O

Key:
human DLL3 = biological target: T1, human DLL3 (Homo sapiens, UniProt Q9NYJ7); assay: Affinity determination by Surface Plasmon Resonance (SPR), Biacore, 1:1 binding model; details: biotinylated human DLL3 on streptavidin chip, 25° C.; NB = nonbinding
T1 construct: biotin (biotinylated)
T1 sequence (Q9NYJ7 27-618): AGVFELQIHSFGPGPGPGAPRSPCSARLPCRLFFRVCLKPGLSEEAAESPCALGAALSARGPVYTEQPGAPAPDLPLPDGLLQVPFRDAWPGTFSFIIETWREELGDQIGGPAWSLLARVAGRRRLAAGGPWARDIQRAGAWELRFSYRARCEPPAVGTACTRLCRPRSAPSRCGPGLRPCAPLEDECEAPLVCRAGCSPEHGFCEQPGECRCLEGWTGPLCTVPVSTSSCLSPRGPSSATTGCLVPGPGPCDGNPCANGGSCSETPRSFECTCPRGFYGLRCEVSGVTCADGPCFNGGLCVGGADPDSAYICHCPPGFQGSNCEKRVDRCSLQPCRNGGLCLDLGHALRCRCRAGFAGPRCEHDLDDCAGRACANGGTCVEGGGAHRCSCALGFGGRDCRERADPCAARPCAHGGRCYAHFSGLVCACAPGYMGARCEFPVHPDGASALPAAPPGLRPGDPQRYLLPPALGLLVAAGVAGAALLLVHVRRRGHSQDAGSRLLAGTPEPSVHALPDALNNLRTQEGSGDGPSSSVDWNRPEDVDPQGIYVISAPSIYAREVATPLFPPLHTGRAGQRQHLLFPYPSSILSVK
Outline: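 SPR with biotinylated human DLL3 captured on a streptavidin chip, with a reference surface subtracted. Samples were injected at several concentrations at 100 μL/min in phosphate buffer with 137 mM NaCl, 2.7 mM KCl, 0.05% P20 and 2% DMSO. Kinetic and affinity constants came from a 1:1 binding fit.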

SHP-77 cells [1] = assay: Cell binding (total uptake) of [177Lu]Lu-labeled peptide, gamma counter bound fraction; type: cell-based, human; details: [177Lu]Lu-test peptide, 1 h, 37° C., 1% PBSA
Protocol: (§1) Example 4. Cell Binding, Internalization, and Radiolabeling of Targeting Moieties Polypeptides General Procedure for Radiolabeling of RPTs with [^177Lu]LuCl3
(§2) [^177Lu]LuCl3 was received from venders in HCl solution. For every mCi of [^177Lu]LUCl3 added to the reaction vial (1.5 mL Eppendorf vial), ammonium acetate buffer (0.2 M, pH 4.9, 100 μL, containing 1% w/v ascorbic acid and 6% v/v ethanol) and peptide conjugate (1 nmol) was added. The pH of the solution was determined to be approximately 5 by using pH strips. The reaction vial was incubated at 80° C., 700 RPM for 17-20 minutes. A sample from the reaction was analyzed by RP-HPLC using an Agilent Infinity II 1260 HPLC to determine reaction completion and radiochemical purity. HPLC conditions: Waters XBridge BEH […] Column, 130 Å, 3.5 um, 4.6 mm×250 mm; mobile phase: Solvent A=water (with 0.1% formic acid), solvent B=acetonitrile (with 0.1% formic acid). Gradients: 25-45% B in 10 minutes, 45-65% B in 12 minutes, 65-90% in 6 minutes at a flow rate of 0.5 mL/min. Required amounts of the product was formulated in 1% PBSA for cell studies.
(§3) The study was conducted using SHP-77cells (Table 7) Adherent cell studies: The cells were cultured in appropriate culture media (20 mL) in tissue culture treated T150 flasks at 37° C. and 5% CO2. Adherent cells were detached (60-70% confluent) using 5 mL Versene at 37° C. for 3 min. After confirming the viability using countess and count of detached cells using Trypan blue, the cells were centrifuged at 4° C. for 5 minutes (1,000 rpm). The cell pellet obtained was washed once with PBS and resuspended in 1% PBSA to obtain the desired cell concentration (5-25 million cells/mL).
as §3, with “Suspension” for “The study was conducted using SHP-77cells (Table 7) Adherent”, “CO2.” for “CO2. Adherent cells were detached (60-70% confluent) using 5 mL Versene at 37° C. for 3 min.”, “viability” for “viability using countess”
(§4) Cell numbers used for the assay were in the range of 5 million cells/condition −25 million cells/condition.
Total uptake: Cells were incubated with 300 μL (0.8 μCi) of the incubation buffer (containing radiolabeled peptide [^177Lu]Lu-test peptide) for 1 hour at 37 C (Table 8). Post incubation, the cells were pelleted and washed 2 times using cold PBS+1% BSA. The supernatant and washes were combined and counted together as “unbound fraction” in a gamma counter. The cells were then resuspended in 300 μL of 1% PBS+1% BSA and counted in the gamma counter as “bound fraction”.
(§5) SHP-77 cells are human-derived, non-engineered SCLC cells.

SHP-77 cells [2] = assay: Internalization of [177Lu]Lu-labeled peptide after glycine acid wash, gamma counter internalized fraction; type: cell-based, human; details: [177Lu]Lu-test peptide, 1 h, 37° C., acid wash 50 mM Glycine pH 2.5
Protocol: as §1, §2, §3
as §3, with “Suspension” for “The study was conducted using SHP-77cells (Table 7) Adherent”, “CO2.” for “CO2. Adherent cells were detached (60-70% confluent) using 5 mL Versene at 37° C. for 3 min.”, “viability” for “viability using countess”
as §4
Internalization: The resuspended cells in 300 μl of 1% PBSA and counted in the gamma counter as “bound fraction” were collected in 1.5 ml Eppendorf tube and pelleted. The pelleted cells were incubated with 300 μl of 50 mM Glycine pH=2.5 for 3 minutes and then pelleted discarding the supernatant. This process was repeated one more time. The pelleted cells were washed with 300 μl of cold 1% PBSA and then resuspended in 300 μl 0.3M NaOH. This was counted in the gamma counter as “internalized fraction”.
as §5

[3] = biological target: DLL3 on SHP-77 cells (human) (UniProt Q9NYJ7); assay: 177Lu-labelled peptide on SHP-77 cells, 1 h 37 C, gamma count of bound fraction

Molecule	Kd (human DLL3)	% Binding (SHP-77 cells [1])	% Internalization (out of bound fraction) (SHP-77 cells [2])	% Binding [3]
CC(=O)N[C@@H](CC1CCNCC1)C(=O)N(C)[C@@H](CO)C(=O)N[C@@H](CC(N)=O)C(=O)N[C@H]1CSSC[C@@H](C(=O)N2CCC[C@@]2(C)C(=O)N[C@@H](Cc2ccccc2)C(=O)N[C@@H](CC(=O)O)C(N)=O)NC(=O)[C@H](CC(N)=O)NC(=O)[C@H](Cc2ccc3ccccc3c2)NC(=O)[C@H](Cc2ccc(CNC(=O)CN3CCN(CC(=O)O)CCN(CC(=O)O)CCN(CC(=O)O)CC3)cc2)NC(=O)[C@H](CC(C)(C)C)NC(=O)[C@H](Cc2cccc3ccccc23)NC1=O [compound 192, Ac-[3-(4-piperidinyl)-Ala]-(NMe-Ser)-N-C(3)-(1Nal)-(t-Bu-Ala)-[PAF(DOTA)]-(2Nal)-D-C(3)-(aMe-P)-F-D-CONH2] (Ac-[Ala(piperidin-4-yl)][NMeS]NC[1Nal][tBuAla][Phe(4-CH2NH2)](DOTA)[2Nal]NC[αMeP]FD-NH2; disulfide 4-10)	0.27 nM	9%	45%	–
CC(=O)N[C@@H](CC1CCNCC1)C(=O)N(C)[C@@H](CO)C(=O)N[C@@H](CC(=O)O)C(=O)N[C@H]1CSSC[C@@H](C(=O)N2CCC[C@@]2(C)C(=O)N[C@@H](Cc2ccccc2)C(=O)N[C@@H](CC(=O)O)C(N)=O)NC(=O)[C@H](CC(N)=O)NC(=O)[C@H](Cc2ccc3ccccc3c2)NC(=O)[C@H](Cc2ccc(CNC(=O)CN3CCN(CC(=O)O)CCN(CC(=O)O)CCN(CC(=O)O)CC3)cc2)NC(=O)[C@H](CC(C)(C)C)NC(=O)[C@H](Cc2cccc3ccccc23)NC1=O [compound 191, Ac-[3-(4-piperidinyl)-Ala]-(NMe-Ser)-D-C(3)-(1Nal)-(t-Bu-Ala)-[PAF(DOTA)]-(2Nal)-N-C(3)-(aMe-P)-F-D-CONH2] (Ac-[Ala(piperidin-4-yl)][NMeS]DC[1Nal][tBuAla][Phe(4-CH2NH2)](DOTA)[2Nal]NC[αMeP]FD-NH2; disulfide 4-10)	0.21 nM	10%	48%	–
CC(=O)N[C@H](C)C(=O)N[C@@H](CO)C(=O)N[C@@](C)(CC(=O)O)C(=O)N[C@H]1CSSC[C@@H](C(=O)N2CCC[C@@]2(C)C(=O)N[C@@H](Cc2ccccc2)C(=O)N[C@@H](CC(=O)O)C(=O)N[C@H](CCCCNC(=O)CN2CCN(CC(=O)O)CCN(CC(=O)O)CCN(CC(=O)O)CC2)C(N)=O)NC(=O)[C@H](CC(N)=O)NC(=O)[C@H](Cc2ccc3ccccc3c2)NC(=O)[C@H](CCC(N)=O)NC(=O)[C@H](CC(C)(C)C)NC(=O)[C@H](Cc2cccc3ccccc23)NC1=O [Cpd #168, Ac-(D-Ala)-S-(aMe-Asp)-C(3)-(1Nal)-(t-Bu-Ala)-Q-(2Nal)-N-C(3)-(aMe-P)-F-D-[D-Lys(DOTA)]-NH2] (Ac-[dA]S[αMeD]C[1Nal][tBuAla]Q[2Nal]NC[αMeP]FD[dK](DOTA)-NH2; disulfide 4-10)	0.026 nM	8%	59%	–
{DOTA}-[dA]SDC[1Nal][tBuAla]Q[2Nal]NC[αMeP][Phe(2-Me)]D-NH2 (disulfide 4-10; also: 177Lu chelated) [[177Lu]Lu-Cpd #154]	–	–	–	10%
Ac-[Ala(piperidin-4-yl)]SD[AllylGly][1Nal][tBuAla][PAF(DOTA)][2Nal]N[AllylGly][αMeP]FD-NH2 (staple 4-10; reading uncertain; also: 177Lu chelated) [[177Lu]Lu-Cpd #200]	–	–	–	6%
Ac-[Ala(piperidin-4-yl)][NMeS]NC[1Nal][tBuAla][PAF(DOTA)][2Nal]DC[αMeP]FD-NH2 (disulfide 4-10; reading uncertain; also: 177Lu chelated, printed as Ac-[3-(4-piperidinyl)-Ala]-(NMe-Ser)-N-C(3)-(1Nal)-(t-Bu-Ala)-[PAF(DOTA)]-(2Nal)-D-C(3)-(aMe-P)-F-D-CONH2; (3)=disulfide; 177Lu chelated) [[177Lu]Lu-Cpd #192]	–	–	–	9%
Ac-[Ala(piperidin-4-yl)][NMeS]DC[1Nal][tBuAla][PAF(DOTA)][2Nal]NC[αMeP]FD-NH2 (disulfide 4-10; reading uncertain; also: 177Lu chelated, printed as Ac-[3-(4-piperidinyl)-Ala]-(NMe-Ser)-D-C(3)-(1Nal)-(t-Bu-Ala)-[PAF(DOTA)]-(2Nal)-N-C(3)-(aMe-P)-F-D-CONH2; (3)=disulfide; 177Lu chelated) [[177Lu]Lu-Cpd #191]	–	–	–	10%
{DOTA}-[Ahx]SDC[1Nal][tBuAla][Ala(piperidin-4-yl)][2Nal]NC[αMeP]FD-NH2 (disulfide 4-10; also: 177Lu chelated) [[177Lu]Lu-Cpd #176]	–	–	–	6%
Ac-[dA]SDC[1Nal][tBuAla]A[2Nal]DC[αMeP]FD[dK](DOTA)-NH2 (disulfide 4-10; also: 177Lu chelated) [[177Lu]Lu-Cpd #166]	–	–	–	7%
Ac-[dA]SDC[1Nal][tBuAla][PAF(DOTA)][2Nal]NC[αMeP]FD-NH2 (disulfide 4-10; reading uncertain; also: 177Lu chelated, printed as Ac-(D-Ala)-S-D-C(3)-(1Nal)-(t-Bu-Ala)-[PAF(DOTA)]-(2Nal)-N-C(3)-(aMe-P)-F-D-CONH2; (3)=disulfide; 177Lu chelated) [[177Lu]Lu-Cpd #158]	–	–	–	25%
Ac-[dA]S[αMeD]C[1Nal][tBuAla]Q[2Nal]NC[αMeP]FD[dK](DOTA)-NH2 (disulfide 4-10; also: 177Lu chelated) [[177Lu]Lu-Cpd #168]	–	–	–	8%
Ac-[dA][NMeS]D[AllylGly][1Nal][tBuAla][PAF(DOTA)][2Nal]N[AllylGly][αMeP]FD-NH2 (staple 4-10; reading uncertain; also: 177Lu chelated) [[177Lu]Lu-Cpd #195]	–	–	–	7%
